The source of these data is patent publication US7622470B2, “Treatment of T-cell lymphoma using 10-propargyl-10-deazaaminopterin” (Sloan-Kettering Institute for Cancer Research, priority 2004, dated 2009).

Each structure is given as a SMILES string. “Also recorded” adds a separate entry of the source. Where two headings read alike, the source gives them in different places.

For series [1], the system named is human tumors (mammary, lung) xenograft. Conditions: cited from earlier work.
Another series has as its system murine L1210 cell line. The following applies: cited from earlier work.
For a further series, the system named is mesothelioma. Conditions: cited from earlier work.
The target of series [2] is T1, dihydrofolate reductase (DHFR) (Mus musculus, UniProt P00375).
T1 sequence (P00375 1-187): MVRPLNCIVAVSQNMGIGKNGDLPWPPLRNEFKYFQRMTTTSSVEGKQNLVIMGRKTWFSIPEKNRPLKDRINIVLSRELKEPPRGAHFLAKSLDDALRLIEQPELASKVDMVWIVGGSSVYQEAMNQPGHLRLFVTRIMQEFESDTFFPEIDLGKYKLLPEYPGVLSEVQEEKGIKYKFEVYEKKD
Conditions: relative to L1210 growth inhibition; cited from earlier work.

Series [3] relates to T cell lymphoma. It is filed as in vivo. Here is the method:
Each of these patients was also treated with folic acid (1 mg/m^2 daily starting 1 week prior to treatment with PDX) and B12 (1 mg/m^2 monthly) supplementation.

The subject of series [4] is T cell lymphoma. Put plainly: Prior treatment history of the study patients. It is filed as in vivo, human. Conditions: Patient 2: Lymphoblastic Lymphoma, Precursor T-cell; MTX May 2002 through February 2004.
Where [5] appears, read: Patient 2: Lymphoblastic Lymphoma, Precursor T-cell, Stage IV, PDX 30 mg/m^2 x 3 weeks every 4 weeks, 3 cycles.
[6] abbreviates: Patient 3: HTLV Associated T-cell Lymphoma, PDX 30 mg/m^2 weekly x 3 every 4 weeks x 2 cycles.
The mark [7] stands for this setting: Patient 4: Panniculitic T-cell Lymphoma, PDX 30 mg/m^2 weekly x 4.

Consider `C#CCC(Cc1cnc2nc(N)nc(N)c2n1)c1ccc(C(=O)N[C@@H](CCC(=O)O)C(=O)O)cc1` (stereo partly drawn) [PDX, 10-Propargyl-10-deazaaminopterin], for which, in series [1] (highly purified PDX compositions), the “Efficacy against human tumors compared with reference antifolates” value was “far superior to methotrexate; also recorded: superior to edatrexate”. In series [1] (several weeks after the cessation of therapy), the “Tumor growth after cessation of therapy” value is “no evidence of tumor growth”. Also, the Inhibition of growth result with murine L1210 cell line was “inhibitor of growth”. Also, the Efficacy against mesothelioma entry in the series on mesothelioma is “effective against mesothelioma”. Further, the “Inhibition of the enzyme” value in series [2] is “to a lesser extent”. In addition, the “Overall response of the patients with T-cell lymphoma treated with PDX” value with T cell lymphoma [3] (4 patients, PET imaging) is “all four have met criteria for complete remission”. Also, the Toxicities result with T cell lymphoma [3] (Patient 1: Peripheral T-cell Lymphoma, Stage IV, PDX 135 mg/m^2 x 1 dose) was “Grade 3 stomatitis; neutropenia grade 3; sepsis”; in the series on T cell lymphoma [3] (setting [5]) it was “None”; in the series on T cell lymphoma [3] (setting [6]), “None”; with T cell lymphoma [3] (setting [7]), “None”. The Response entry in the series on T cell lymphoma [3] (Patient 1: Peripheral T-cell Lymphoma, Stage IV, PDX 135 mg/m^2 x 1 dose, folic acid and B12 supplementation) is “Essentially complete remission by PET scan”; in the series with T cell lymphoma [3] (setting [5]), “Complete remission by PET and CT scans”; in the series on T cell lymphoma [3] (setting [6]), “Complete remission”; with T cell lymphoma [3] (setting [7]) it was “Clinical complete remission by PET”.

Turning to `CN(Cc1cnc2nc(N)nc(N)c2n1)c1ccc(C(=O)N[C@@H](CCC(=O)O)C(=O)O)cc1` [methotrexate], the “Response to prior treatment” value in the series on T cell lymphoma [4] is reported as “essentially methotrexate resistant disease”.
